# Experimental data taken from PubChem BioAssay (NCI).
#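 Results reflect a 48-hour exposure of cells in 96-well plates to compound at five concentrations. Definition used: TGI = concentration required for complete inhibition of growth.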
# What was measured:
# Test in all cases: NCI tumour cell line growth inhibition, 48 h
# [1] = tested on: M14 melanoma
# [2] = tested on: SNB-19 CNS
# [3] = tested on: DU-145 prostate
# [4] = tested on: MALME-3M melanoma
# [5] = tested on: NCI/ADR-RES ovarian
# [6] = tested on: U251 CNS
# [7] = tested on: TK-10 renal
# [8] = tested on: PC-3 prostate
# [9] = tested on: OVCAR-5 ovarian
# [10] = tested on: HS 578T breast
# [11] = tested on: CCRF-CEM leukemia
# [12] = tested on: HCC-2998 colon
# [13] = tested on: UO-31 renal
# [14] = tested on: COLO 205 colon
# [15] = tested on: RXF 393 renal
# [16] = tested on: ACHN renal
# [17] = tested on: RPMI-8226 leukemia
# [18] = tested on: MCF7 breast
# [19] = tested on: T-47D breast
# [20] = tested on: NCI-H460 lung
# [21] = tested on: NCI-H23 lung
# [22] = tested on: A549 NSCLC
# [23] = tested on: IGROV1 ovarian
# [24] = tested on: 786-0 renal
# [25] = tested on: HOP-62 NSCLC
# [26] = tested on: SW-620 colon
# [27] = tested on: MDA-MB-435
# [28] = tested on: SNB-75 CNS
# [29] = tested on: SK-OV-3 ovarian
# [30] = tested on: SR leukemia
# [31] = tested on: SK-MEL-2 melanoma
# [32] = tested on: CAKI-1 renal
# [33] = tested on: HCT-15 colon
# [34] = tested on: SF-295 CNS
# [35] = tested on: BT-549 breast
# [36] = tested on: LOX IMVI melanoma
# [37] = tested on: OVCAR-4 ovarian
# [38] = tested on: OVCAR-3 ovarian
# [39] = tested on: HT29 colon
# [40] = tested on: SK-MEL-5 melanoma
# [41] = tested on: MDA-MB-231 breast
# [42] = tested on: HL-60(TB) leukemia
# [43] = tested on: MOLT-4 leukemia
# [44] = tested on: K-562 leukemia
# [45] = tested on: SF-268 CNS
# [46] = tested on: UACC-257 melanoma
smiles,measurement,setting,value
[N-]=[N+]=Nc1c(Cc2ccccc2)c(=O)oc2ccccc12,TGI,[1],62.3 µM
same,TGI,[2],> 100 µM
same,TGI,[3],> 100 µM
same,TGI,[4],> 100 µM
same,TGI,[5],> 100 µM
same,TGI,[6],69.7 µM
same,TGI,[7],60.4 µM
same,TGI,[8],> 100 µM
same,TGI,[9],> 100 µM
same,TGI,[10],61.3 µM
same,TGI,[11],45.8 µM
same,TGI,[12],62.1 µM
same,TGI,[13],> 100 µM
same,TGI,[14],98.4 µM
same,TGI,[15],38 µM
same,TGI,[16],> 100 µM
same,TGI,[17],> 100 µM
same,TGI,[18],70.9 µM
same,TGI,[19],> 100 µM
same,TGI,[20],57.3 µM
same,TGI,[21],78.1 µM
same,TGI,[22],> 100 µM
same,TGI,[23],70.6 µM
same,TGI,[24],> 100 µM
same,TGI,[25],50.3 µM
same,TGI,[26],39.7 µM
same,TGI,[27],58.5 µM
same,TGI,[28],> 100 µM
same,TGI,[29],> 100 µM
same,TGI,[30],> 100 µM
same,TGI,[31],78.8 µM
same,TGI,[32],> 100 µM
same,TGI,[33],> 100 µM
same,TGI,[34],> 100 µM
same,TGI,[35],46.9 µM
same,TGI,[36],28.4 µM
same,TGI,[37],> 100 µM
same,TGI,[38],> 100 µM
same,TGI,[39],54.5 µM
same,TGI,[40],20.2 µM
same,TGI,[41],> 100 µM
same,TGI,[42],> 100 µM
same,TGI,[43],26.2 µM
same,TGI,[44],86.9 µM
same,TGI,[45],62.1 µM
same,TGI,[46],> 100 µM
